Test results from EP1207886B1, “SPHINGOMYELINASE INHIBITORS AS AGENTS WITH ANTIAPOPTOTIC AND ANTISEPTIC ACTION” (Biofrontera Pharmaceuticals GmbH, priority 1999, dated 2000).
pIC50: −log10 of the molar value.

Tests used:
Type in all cases: cell-based, Menschliche
[1] = test system: Mφ; experiment: Cell culture and apoptosis test (counting YOPRO-1-stained apoptotic cells); conditions: differentiated Mφ pretreated 30 min with compound, then mmLDL or TNF α (3 ng/ml); YOPRO-1 count after four hours; read-out: Apoptose (IC-50)
Excerpt: LDL wurde von gesunden, freiwilligen Testpersonen durch sequentielle Flotation in einer Ultrazentrifuge bei vorbestimmten Dichten erhalten, wie in Havel et al. (J. Clin. Invest. 34, 3145 (1955)) bzw. Deigner et al. (Arzneim.-Forsch./Drug Res. 44, 956, (1994)) beschrieben. Für den Apoptose-Test wurde LDL durch Dialyse gegen Tris-HCl-Puffer, der 20 µMol FeCl3 enthielt, für 48 Stunden minimal modifiziert (mmLDL), wie von Watson et al. (J. Clin. Invest. 95, 774 (1995) beschrieben.
Menschliche, mononucleäre, periphere Blutzellen aus venösem Blut wurden isoliert, gezüchtet und, wie in Kinscherf et al. (The FASEB J. 11, 1317 (1997); The FASEB J. 12, 461 (1998)) beschrieben, bis zum Differenzieren zu Mφ belassen. Differenzierte Mφ wurden mit Lipoproteinmangelserum (P>1,21, durch Ultrazentrifugieren von fötalem Kälberserum hergestellt, wie in Havel et al. beschrieben) für 24 Stunden vor der Testdurchführung gezüchtet, mit der entsprechenden Verbindung für 30 Minuten bei den angeführten Konzentrationen vorbehandelt und anschließlich mLDL oder rekombinantem TNF α (3 ng/ml) in dem gleichen Medium ausgesetzt. Die Bestimmung der Apoptose wurde durch Zählen von YOPRO-1-gefärbten apoptotischen Zellen, wie in Idziorek et al. (J. Immunol. Methods 185, 249 (1995)) beschrieben, nach vier Stunden durchgeführt.

[2] = test system: Ceramid; experiment: Ceramide concentration in cells (diacylglycerol-kinase phosphorylation); conditions: Mφ, mmLDL or ceramide
Excerpt: Die Ceramidkonzentrationen in den Zellen wurden nach Diacylglycerolkatalysierter Phosphorylierung, wie in Kinscherf et al. (FEBS, 405, 55 (1997)) und Dressler et al. (J. Biol. Chem. 265, 14917 (1990)) beschrieben, bestimmt.
Figur 1 zeigt in einem Diagramm die Phospho-Ceramid-Konzentration (cpm/spot) nach ox. LDL-Stimulierung zum einen ohne (ox) und zum anderen unter Zugabe entsprechender Verbindungen mit der allgemeinen Formel (I), die in den erfindungsgemäßen pharmazeutischen Zusammensetzungen enthalten sein können, nämlich [2-(3,4-Dimethoxyphenyl)-ethyl]-[3-(2-chlorphenothiazin-10-yl)-N-propyl]-methylamin (V3) und [3-(Carbazol-9-yl)-N-propyl]-[2-(4-methoxyphenyl)-ethyl]methylamin (V6). Ferner ist auch die Phospho-Ceramid-Konzentration in Folge der Stimulation durch TNF angegeben.

[3] = test system: aSMase; experiment: RT-PCR of aSMase expression in Mφ; conditions: for mmLDL- oder Ceramid-induzierte Enzyminduktion: Mφ
Procedure: Fig. 5 zeigt die RT-PCR von aSMase in Mφ. Es zeigt sich eine Expression von aSMase (687 bp) nach Inkubation (4 h) von Mφ mit steigenden mmLDL-Konzentrationen.
(§1) Fig. 6 zeigt die Wirkung einer Vorbehandlung von Mφ mit einer Zusammensetzung die [3-(Carbazol-9-yl)-N-propyl]-[2-(4-methoxyphenyl)-ethyl]-methylamin (V6) enthält (2 µM, 30 min), auf die aSMase-Expression und die Apoptose in Mφ (Prozentanteil von apoptotischen Mφ, bestimmt durch YOPRO-1-Färbung nach Inkubation mit Medium oder C6-Ceramid (10 µM) mit oder ohne Vorbehandlung mit der Verbindung V6; Daten sind als Mittelwert ± SEM von drei Experimenten angegeben. *, P ≤ 0,05 vs. Kontrolle oder #, P ≤ 0,05 vs. mit C6-Ceramid behandelten Zellen (120 min)).
(§2) Menschliche, mononucleäre, periphere Blutzellen aus venösem Blut wurden mittels Ficoll-Paque (Sigma, Deisenhofen, BR Deutschland) Dichtegradientenzentrifugierung isoliert. Mφ wurden mmLDL (27 µg/ml), C6-Ceramid (10 µM) bzw. H2O2 (30 µM) unterworfen. Apoptotische Zellen wurden mittels YOPRO-1-Färbung (s. Idziorek et al, J. Immunol. Methods, 185, 1995, 249-258) und/oder mittels TUNEL-Technik (Quantum Appligene, Heidelberg, BR Deutschland) identifiziert. Die Bestimmung der Apoptose (Prozentanteil apoptotischer Zellen) wurde durch Zählen von YOPRO-1-gefärbten apoptotischen Zellen unter Verwendung eines Mikroskops, ausgestattet mit einer Quecksilberlampe und einer Fluoreszenzeinheit in Kombination mit einem Computer-unterstützten Morphometriesystem, quantifiziert.
Für die Amplifizierung der aSMase waren die Primer und die Bedingungen wie folgt: 5'-[…]-3' (vorwärts) und 5'-[…]-3', 94°C, 60°C, 72°C, jeweils 1 min, 40 Zyklen (Sequenzanalyse des gereinigten PCR-Produkts durch das Deutsche Krebsforschungszentrum, Heidelberg, BR Deutschland, bestätigte die Amplifizierung des erwarteten aSMase-Fragments).

[4] = target: T1, sauren Sphingomyelinase (Homo sapiens, UniProt P17405); experiment: SMase inhibition in cells (activity in cell lysates, BODIPY-FL-C5-sphingomyelin, HPLC); conditions: for pIC50: human macrophages pretreated 30 min with compound, then 2 h oxidised LDL (27 µg/ml), lysate activity at pH 5,0, read-out: Hemmung der sauren Sphingomyelinase (Zellen) (IC-50)
T1 construct: endogenous in cells; host or cells: human macrophages (treated with compound, then oxidised LDL; lysed, supernatant assayed)
T1 sequence (P17405 47-631): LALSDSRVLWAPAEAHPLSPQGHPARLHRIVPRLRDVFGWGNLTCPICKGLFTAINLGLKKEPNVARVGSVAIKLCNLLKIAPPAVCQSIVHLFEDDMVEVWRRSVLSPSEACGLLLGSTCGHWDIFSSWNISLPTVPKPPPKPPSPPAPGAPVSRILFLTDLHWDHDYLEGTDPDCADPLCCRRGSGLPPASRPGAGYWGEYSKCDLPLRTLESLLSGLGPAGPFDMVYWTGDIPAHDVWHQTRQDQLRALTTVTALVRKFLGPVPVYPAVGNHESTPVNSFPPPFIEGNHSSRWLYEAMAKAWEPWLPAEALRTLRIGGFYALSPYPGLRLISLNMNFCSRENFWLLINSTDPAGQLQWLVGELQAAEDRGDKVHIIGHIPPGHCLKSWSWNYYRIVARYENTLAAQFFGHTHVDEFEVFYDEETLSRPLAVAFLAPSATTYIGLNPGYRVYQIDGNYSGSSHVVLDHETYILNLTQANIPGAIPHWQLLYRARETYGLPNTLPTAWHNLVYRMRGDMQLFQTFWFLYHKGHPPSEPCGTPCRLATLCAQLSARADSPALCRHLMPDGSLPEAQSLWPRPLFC

[5] = test system: Mφ; experiment: Apoptosis in Mφ induced by C6-ceramide or mmLDL (YOPRO-1 staining / TUNEL); conditions: for programmierten Zelltod in Mφ: mmLDL or ceramide
Procedure: as §1, §2

Molecule	pIC50 [1]	pIC50 [4]	other results
10-(3-{4-[2-(3,-Dimethoxyphenyl)-ethyl]-3,5-dimethylpiperazin-1-yl}-propyl)-9H-carbazol [V42]	5.40	–	–
COc1ccc(Cn2c(=O)c3ccccc3n(Cc3ccc(OC)cc3)c2=O)cc1 [1,3-Bis-(4-methoxybenzyl)-1H-chinazolin-2,4-dion]	6.30	–	–
COc1ccc(Cn2c(=O)[nH]c3ccccc3c2=O)cc1 [3-(4-Methoxybenzyl)-1H-chinazolin-2,4-dion]	5.52	–	–
COc1ccc(Cn2c3ccccc3c3ccccc32)cc1 [9-(4-Methoxybenzyl-9H-carbazol)]	6.00	–	–
COc1ccc(CCN(C)CCCN2c3ccccc3Sc3ccc(Cl)cc32)cc1OC [V3, [2-(3,4-Dimethoxyphenyl)-ethyl]-[3-(2-chlorphenothiazin-10-yl)-N-propyl]-methylamin]	5.70	5.22	Stimulierung der Ceramidbildung [2]: inhibieren; mmLDL- oder Ceramid-induzierte Enzyminduktion [3]: inhibieren; programmierten Zelltod in Mφ [5]: vermindert
COc1ccc(CCN(C)CCCN2c3ccccc3Sc3ccc(Cl)cc32)cc1 [V4, [2-(4-Methoxyphenyl)-ethyl]-[3-(2-chlorphenothiazin-10-yl)-N-propyl]-methylamin]	5.30	–	–
COc1ccc(CCN(C)CCCn2c3ccccc3c3ccccc32)cc1OC [V5, [3-(Carbazol-9-yl)-N-propyl]-[2-(3,4-dimethoxyphenyl)-ethyl]methylamin]	–	5.10	–
COc1ccc(CCN(C)CCCn2c3ccccc3c3ccccc32)cc1 [V6, [3-(Carbazol-9-yl)-N-propyl]-[2-(4-methoxyphenyl)-ethyl]methylamin]	–	5.05	Stimulierung der Ceramidbildung [2]: inhibieren; mmLDL- oder Ceramid-induzierte Enzyminduktion [3]: inhibieren; Ceramid-vermittelte aSMase-Transkription ([3]; pretreatment of Mφ (2 µM, 30 min), C6-Ceramid (10 µM)): verhinderte; Aktivierung des Enzyms ([4]; ceramide-treated Mφ, measured in cell lysates): verhinderte; durch mmLDL (27 µg/ml) initiierten Anstieg der aSMase-Aktivität in Zelllysaten ([4]; pretreatment of Mφ, mmLDL 27 µg/ml, basal activity 2,18 nmol/h x mg): vollständig verhindert; programmierten Zelltod in Mφ [5]: vermindert; Induktion von Apoptose ([5]; pretreatment of Mφ (2 µM, 30 min), C6-Ceramid (10 µM), YOPRO-1): verhinderte
COc1ccc(CCN(C)CCN2c3ccccc3CCc3ccccc32)cc1OC [V15, [2-(10,11-Dihydro-dibenzo[b,f]azepin-5-yl)-N-ethyl]-[2-(3,4-dimethoxyphenyl)-ethyl]methylamin]	–	4.85	–
COc1ccc(CCN(C)CCN2c3ccccc3CCc3ccccc32)cc1 [V16, [2-(10,11-Dihydro-dibenzo[b,f]azepin-5-yl)-N-ethyl]-[2-(4-methoxyphenyl)-ethyl]methylamin]	–	4.80	–
COc1ccc(CCN2CCN(CCn3c4ccccc4c4ccccc43)CC2)cc1 [V18, N-[2-(Carbazol-9-yl)-N-ethyl]-N'-[2-(4-methoxyphenyl)-ethyl]piperazin]	–	4.48	–
COc1ccc(CCN(C)CCCN(c2ccccc2)c2ccccc2)cc1 [V34, N-[2-(4-Methoxyphenyl)-ethyl]-N-methyl-N',N'-diphenylpropan-1,3-diamin]	5.52	–	–

The next lines start with results.

pIC50 [1]	pIC50 [4]	Molecule	other results
–	5.00	COc1ccc(CCNCCCNC2c3ccccc3CCc3ccccc32)cc1 [V22, N-(5H-Dibenzo[a,d]cycloheptan-5-yl)-N'-[2-(4-methoxyphenyl)-ethyl]-propylendiamin]	–
–	5.10	COc1ccc(CCN(C)CCn2c3ccccc3c3ccccc32)cc1 [V23, [2-(Carbazol-9-yl)-N-ethyl]-[2-(4-methoxyphenyl)-ethyl]methylamin]	–
5.82	4.70	COc1ccc(CCN(C)CCC=C2c3ccccc3CCc3ccccc32)cc1 [V31, [3-(10,11-Dihydro-dibenzo[a,d]cyclohepten-5-yliden)-propyl]-[2-(4-methoxyphenyl)-ethyl]methylamin]	–
4.74	–	COc1ccc(CCN(C)C(F)(F)C(F)(F)C(F)(F)C(F)(F)n2c3ccccc3c3ccccc32)cc1 [V32, (4-Carbazol-9-yl-1,1,2,2,3,3,4,4-octafluorbutyl)-[2-(4-methoxyphenyl)-ethyl]-methylamin]	–
5.22	–	COc1ccc(CCN(C)CCCN(c2ccccc2)c2ccccc2)cc1OC [V35, N-[2-(3,4-Dimethoxyphenyl)-ethyl]-N-methyl-N',N'-diphenylpropan-1,3-diamin]	–
6.00	–	COc1ccc(CCN2C(C)CN(CCCN3c4ccccc4Oc4ccccc43)CC2C)cc1 (stereo not drawn) [V36, 10-(3-{4-[2-(4-Methoxyphenyl)-ethyl]-3,5-dimethylpiperazin-1-yl}-propyl)-10H-phenoxazin]	–
5.60	–	COc1ccc(CCN(C)CCCN2c3ccccc3Oc3ccccc32)cc1OC [V37, [2-(3,4-Dimethoxyphenyl)-ethyl]-methyl-(phenoxazin-10-yl-propyl)amin]	–
5.22	–	COc1ccc(CCN(C)CCC=C2c3ccccc3CCc3ccccc32)cc1OC [V38, [3-(10,11-Dihydro-dibenzo[a,d]cyclohepten-5-yliden)-propyl]-[2-(3,4-dimethoxyphenyl)-ethyl]methylamin]	–
5.15	–	COc1ccc(CCN2CCCN(C3c4ccccc4CCc4ccccc43)C2)cc1OC [V41, N-(10,11-Dihydro-5H-dibenzo[a,d]cyclohepten-5-yl)-N'-[2-(3,4-dimethoxyphenyl)-ethyl]-hexahydropyrimidin]	–
